Data from patent publication US20260285850A1, “SUBSTITUTED OXAZOLIDINONES AND IMIDAZOLINONES AS HERBICIDES” (FMC CORPORATION, priority 2023, published 2026).

What was measured:
Format in all cases: in vivo
[1] = test system: galium (catchweed bedstraw, Galium aparine); assay: Test A postemergence application, visual injury rating 0-100; conditions: 10 days
Outline: (§1)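 Rating: visual, day 10, untreated plants as reference, 0 no effect to 100 full control. Plants were in loam-sand and were treated either preemergence via directed soil spray or postemergence at the one- to two-leaf stage.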

[2] = test system: oat, wild (wild oat, Avena fatua); assay: as above; conditions: 10 days
Outline: as §1

[3] = test system: ryegrass, Italian (italian ryegrass, Lolium multiflorum); assay: as above; conditions: 10 days
Outline: as §1

[4] = test system: blackgrass (Alopecurus myosuroides); assay: as above; conditions: 10 days
Outline: as §1

[5] = test system: wheat (Triticum aestivum); assay: as above; conditions: 10 days
Outline: as §1

[6] = test system: barnyardgrass (Echinochloa crus-galli); assay: as above; conditions: 10 days
Outline: as §1

kochia (Bassia scoparia) [7] = assay: as above; conditions: 10 days
Outline: as §1

[8] = test system: horseweed (Erigeron canadensis); assay: as above; conditions: 10 days
Outline: as §1

[9] = test system: palmer (palmer amaranth, palmer pigweed, Amaranthus palmeri); assay: as above; conditions: 10 days
Outline: as §1

[10] = test system: ragweed (common ragweed, Ambrosia artemisiifolia); assay: as above; conditions: 10 days
Outline: as §1

corn (Zea mays) [11] = assay: as above; conditions: 10 days
Outline: as §1

soybean (Glycine max) [12] = assay: as above; conditions: 10 days
Outline: as §1

[13] = test system: green foxtail (Setaria viridis); assay: as above; conditions: 10 days
Outline: as §1

[14] = test system: oat, wild (wild oat, Avena fatua); assay: Test A preemergence soil spray, visual injury rating 0-100; conditions: 10 days, 0 = no effect, 100 = complete control
Outline: as §1

[15] = test system: ryegrass, Italian (italian ryegrass, Lolium multiflorum); assay: as above; conditions: 10 days, 0 = no effect, 100 = complete control
Outline: as §1

[16] = test system: blackgrass (Alopecurus myosuroides); assay: as above; conditions: 10 days, 0 = no effect, 100 = complete control
Outline: as §1

[17] = test system: wheat (Triticum aestivum); assay: as above; conditions: 10 days, 0 = no effect, 100 = complete control
Outline: as §1

[18] = test system: barnyardgrass (Echinochloa crus-galli); assay: as above; conditions: 10 days, 0 = no effect, 100 = complete control
Outline: as §1

kochia (Bassia scoparia) [19] = assay: as above; conditions: 10 days, 0 = no effect, 100 = complete control
Outline: as §1

[20] = test system: palmer (palmer amaranth, palmer pigweed, Amaranthus palmeri); assay: as above; conditions: 10 days, 0 = no effect, 100 = complete control
Outline: as §1

[21] = test system: ragweed (common ragweed, Ambrosia artemisiifolia); assay: as above; conditions: 10 days, 0 = no effect, 100 = complete control
Outline: as §1

corn (Zea mays) [22] = assay: as above; conditions: 10 days, 0 = no effect, 100 = complete control
Outline: as §1

soybean (Glycine max) [23] = assay: as above; conditions: 10 days, 0 = no effect, 100 = complete control
Outline: as §1

[24] = test system: green foxtail (Setaria viridis); assay: as above; conditions: 10 days, 0 = no effect, 100 = complete control
Outline: as §1

[25] = test system: ducksalad (Heteranthera limosa); assay: Test B flooded paddy test, visual plant response rating 0-100; conditions: 250 g ai/ha, Flood, applied to paddy water, evaluated after 13 days
Outline: (§2)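 Visual scores versus untreated controls were recorded 13 days after treatment of greenhouse-held plants. At the 2-leaf stage, pots were flooded 3 cm above the soil surface and compounds added straight to the water.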

[26] = test system: sedge, umbrella (small-flower umbrella sedge, Cyperus difformis); assay: as above; conditions: 250 g ai/ha, Flood, applied to paddy water, evaluated after 13 days
Outline: as §2

[27] = test system: barnyardgrass (Echinochloa crusgalli); assay: as above; conditions: 250 g ai/ha, Flood, applied to paddy water, evaluated after 13 days
Outline: as §2

rice (Oryza sativa) = assay: as above; conditions: 250 g ai/ha, Flood, applied to paddy water, evaluated after 13 days
Outline: as §2

[28] = 31 g ai/ha, postemergence, 0 = no effect, 100 = complete control
[29] = Postemergence, 125 g ai/ha, 0 is no effect, 100 is complete control

**Q.** Which “Galium plant response rating (0-100)” value [1, 28] does the source give for CC1(C(=O)NC2CC=C(C(=O)OCC(F)(F)F)C2)CN(c2cc(F)cc(F)c2)C(=O)O1 (single isomer, unassigned) [Compound 24] here?
**A.** The value was 40.

**Q.** What about the “Galium plant response rating (0 to 100 scale)” value [1, 29] of the same compound?
**A.** The value was 80.

**Q.** And the “Oat, Wild plant response rating (0-100)” value [2, 28]?
**A.** The value was 10.

**Q.** What about the “Oat, Wild plant response rating (0 to 100 scale)” value [2, 29] of the same compound?
**A.** The value was 60.

**Q.** And the “Ryegrass, Italian plant response rating (0-100)” value [3, 28]?
**A.** The value was 40.

**Q.** And the “Ryegrass, Italian plant response rating (0 to 100 scale)” value [3, 29]?
**A.** The value was 60.

**Q.** And the “Blackgrass plant response rating (0-100)” value [4, 28]?
**A.** Its value is 0.

**Q.** And the “Blackgrass plant response rating (0 to 100 scale)” value [4, 29]?
**A.** Its value is 60.

**Q.** And the “Wheat plant response rating (0-100)” value [5, 28]?
**A.** The value was 30.

**Q.** And the “Wheat plant response rating (0 to 100 scale)” value [5, 29]?
**A.** The value was 90.

**Q.** What about the “Barnyardgrass plant response rating (0-100)” value [6, 28] of the same compound?
**A.** Its value is 20.

**Q.** And the “Barnyardgrass plant response rating (0 to 100 scale)” value [6, 29]?
**A.** Its value is 80.

**Q.** And the “Kochia plant response rating (0-100)” value (kochia (Bassia scoparia) [7]; [28])?
**A.** The value was 20.

**Q.** What about the “Kochia plant response rating (0 to 100 scale)” value (kochia (Bassia scoparia) [7]; [29]) of the same compound?
**A.** Its value is 90.

**Q.** What about the “Horseweed plant response rating (0-100)” value [8, 28] of the same compound?
**A.** The value was 20.

**Q.** What about the “Horseweed plant response rating (0 to 100 scale)” value [8, 29] of the same compound?
**A.** Its value is 10.

**Q.** And the “Amaranth, Palmer plant response rating (0-100)” value [9, 28]?
**A.** The value was 0.

**Q.** What about the “Amaranth, Palmer / Pigweed, Palmer plant response rating (0 to 100 scale)” value [9, 29] of the same compound?
**A.** Its value is 40.

**Q.** What about the “Ragweed plant response rating (0-100)” value [10, 28] of the same compound?
**A.** The value was 20.

**Q.** And the “Ragweed plant response rating (0 to 100 scale)” value [10, 29]?
**A.** Its value is 30.

**Q.** What about the “Corn plant response rating (0-100)” value (corn (Zea mays) [11]; [28]) of the same compound?
**A.** Its value is 10.

**Q.** What about the “Corn plant response rating (0 to 100 scale)” value (corn (Zea mays) [11]; [29]) of the same compound?
**A.** Its value is 90.

**Q.** And the “Soybean plant response rating (0-100)” value (soybean (Glycine max) [12]; [28])?
**A.** Its value is 0.

**Q.** What about the “Soybean plant response rating (0 to 100 scale)” value (soybean (Glycine max) [12]; [29]) of the same compound?
**A.** The value was 60.

**Q.** What about the “Foxtail, Green plant response rating (0-100)” value [13, 28] of the same compound?
**A.** The value was 0.

**Q.** What about the “Foxtail, Green plant response rating (0 to 100 scale)” value [13, 29] of the same compound?
**A.** The value was 60.

**Q.** What about the “Oat, Wild plant response rating (0-100)” value ([14]; 31 g ai/ha) of the same compound?
**A.** Its value is 0.

**Q.** And the “Oat, Wild plant response rating (0 to 100 scale)” value ([14]; 125 g ai/ha)?
**A.** Its value is 20.

**Q.** And the “Ryegrass, Italian plant response rating (0-100)” value ([15]; 31 g ai/ha)?
**A.** Its value is 0.

**Q.** And the “Ryegrass, Italian plant response rating (0 to 100 scale)” value ([15]; 125 g ai/ha)?
**A.** The value was 0.

**Q.** What about the “Blackgrass plant response rating (0-100)” value ([16]; 31 g ai/ha) of the same compound?
**A.** The value was 0.

**Q.** And the “Blackgrass plant response rating (0 to 100 scale)” value ([16]; 125 g ai/ha)?
**A.** Its value is 0.

**Q.** And the “Wheat plant response rating (0-100)” value ([17]; 31 g ai/ha)?
**A.** The value was 0.

**Q.** And the “Wheat plant response rating (0 to 100 scale)” value ([17]; 125 g ai/ha)?
**A.** The value was 70.

**Q.** And the “Barnyardgrass plant response rating (0-100)” value ([18]; 31 g ai/ha)?
**A.** Its value is 10.

**Q.** What about the “Barnyardgrass plant response rating (0 to 100 scale)” value ([18]; 125 g ai/ha) of the same compound?
**A.** Its value is 10.

**Q.** What about the “Kochia plant response rating (0-100)” value (kochia (Bassia scoparia) [19]; 31 g ai/ha) of the same compound?
**A.** The value was 0.

**Q.** And the “Kochia plant response rating (0 to 100 scale)” value (kochia (Bassia scoparia) [19]; 125 g ai/ha)?
**A.** The value was 0.

**Q.** And the “Amaranth, Palmer plant response rating (0-100)” value ([20]; 31 g ai/ha)?
**A.** Its value is 30.

**Q.** And the “Amaranth, Palmer plant response rating (0 to 100 scale)” value ([20]; 125 g ai/ha)?
**A.** The value was 70.

**Q.** What about the “Ragweed plant response rating (0-100)” value ([21]; 31 g ai/ha) of the same compound?
**A.** The value was 0.

**Q.** What about the “Ragweed plant response rating (0 to 100 scale)” value ([21]; 125 g ai/ha) of the same compound?
**A.** Its value is 10.

**Q.** What about the “Corn plant response rating (0-100)” value (corn (Zea mays) [22]; 31 g ai/ha) of the same compound?
**A.** The value was 0.

**Q.** What about the “Corn plant response rating (0 to 100 scale)” value (corn (Zea mays) [22]; 125 g ai/ha) of the same compound?
**A.** The value was 0.

**Q.** And the “Soybean plant response rating (0-100)” value (soybean (Glycine max) [23]; 31 g ai/ha)?
**A.** Its value is 0.

**Q.** What about the “Soybean plant response rating (0 to 100 scale)” value (soybean (Glycine max) [23]; 125 g ai/ha) of the same compound?
**A.** The value was 10.

**Q.** And the “Foxtail, Green plant response rating (0-100)” value ([24]; 31 g ai/ha)?
**A.** The value was 50.

**Q.** And the “Foxtail, Green plant response rating (0 to 100 scale)” value ([24]; 125 g ai/ha)?
**A.** Its value is 50.

**Q.** And the “Plant response rating, Ducksalad (0 to 100 scale, 0 is no effect and 100 is complete control)” value [25]?
**A.** Its value is 0.

**Q.** What about the “Plant response rating, Sedge, Umbrella (0 to 100 scale, 0 is no effect and 100 is complete control)” value [26] of the same compound?
**A.** Its value is 0.

**Q.** What about the “Plant response rating, Barnyardgrass (0 to 100 scale, 0 is no effect and 100 is complete control)” value [27] of the same compound?
**A.** Its value is 0.

**Q.** What about the “Plant response rating, Rice (0 to 100 scale, 0 is no effect and 100 is complete control)” value (rice (Oryza sativa)) of the same compound?
**A.** The value was 0.
